Patent publication EP4640672A1, “ETHYLENEDIAMINE DERIVATIVE, AND PREPARATION METHOD THEREFOR AND USE THEREOF” (Jiangsu Protelight Pharmaceutical & Biotechnology Co., Ltd., priority 2022, dated 2024)

How the values were obtained:
Lung cancer A549 = test: in vitro anti-tumor activity assay (MTT method); type: cell-based, human; details: Lung cancer A549, culture medium F12, 48 h of culture
Procedure: (§1) Five human tumor cell lines were selected and cultured in RPMI-1640 (Gibco) or DMEM (Gibco) or GMEM/F12 medium (Gibco) containing 10% inactivated fetal bovine serum, 100 U/ml penicillin and […] streptomycin in an incubator containing 5% CO2 at 37°C. Logarithmically growing cells were seeded in 96-well plates (100 µl per well, 2 x 10^4 cells) using the MTT method, while setting blank control wells. After overnight incubation in the incubator, 100 µl of drug (final concentration 25 µM diluted to 0.39 µM, a total of 7 groups of drug concentrations) was added, an equal volume of culture medium was added in the blank control wells, and 3 duplicate wells were set for each drug concentration. After 48 h of culture, the supernatant was discarded. After washing twice with PBS, 100 µl of MTT (5mg/ml) was added to each well, and the culture was continued for 2 h. Absorbance (A492nm) was measured by a microplate reader to calculate the inhibition rate of the drug on tumor cells.
(§2) IC50 values of compounds on tumor cells were calculated using GraphPad software. […] Table 2. In vitro anti-tumor activity IC50 (µM) of example compounds

Liver cancer HepG2 = test: in vitro anti-tumor activity assay (MTT method); type: cell-based, human; details: Liver cancer HepG2, culture medium High-sugar DMEM, 48 h of culture
Procedure: as §1, §2

Prostate cancer PC-3 = test: in vitro anti-tumor activity assay (MTT method); type: cell-based, human; details: Prostate cancer PC-3, culture medium F12, 48 h of culture
Procedure: as §1, §2

Lung cancer H460 = test: in vitro anti-tumor activity assay (MTT method); type: cell-based, human; details: 48 h of culture
Procedure: as §1, §2

Prostate cancer LNcap = test: in vitro anti-tumor activity assay (MTT method); type: cell-based, human; details: culture medium RPMI-1640, 48 h of culture
Procedure: as §1, §2

A549 lung cancer cells = test: in vivo anti-tumor efficacy assay, subcutaneous tumor model; details: BALB/c nude mice, intraperitoneally 20 mg/kg once per two days, 10 times; for Tumor inhibition rate: calculated from tumor weight; for Mean tumor weight (g) (mean ± SD): weighed on 2nd day after last administration
Procedure: An in vivo efficacy evaluation model was established in BALB/c nude mice. Each mouse was inoculated subcutaneously with 0.15 mL of tumor cell suspension (A549 lung cancer cells, 2 x 10^7 cells/ml) in the axillary fossa of the right forelimb. When the inoculated cells grew to 300 mm^3, the administration was started. On the 22nd day after inoculation, the mice were intraperitoneally administered (20 mg/kg) once per two days for a total of 10 times. On the 2nd day after the last administration, all the tumor-bearing mice were sacrificed, the tumors were weighed and the tumor inhibition rate was calculated. […] Table 3 Results of in vivo anti-tumor activity of the example compounds

[1] = Homo sapiens, NCI-H460, Lung cancer H460, culture medium High-sugar DMEM

SMILES	IC50 (Lung cancer A549; Homo sapiens) [nM]	IC50 (Liver cancer HepG2; Homo sapiens) [nM]	IC50 (Prostate cancer PC-3; Homo sapiens) [nM]	IC50 (Lung cancer H460; [1]) [nM]	IC50 (Prostate cancer LNcap; Homo sapiens) [nM]	Tumor inhibition rate (A549 lung cancer cells) [%]	Mean tumor weight (g) (mean ± SD) (A549 lung cancer cells)	IC50 (Lung cancer A549) [nM]	IC50 (Liver cancer HepG2) [nM]	IC50 (Prostate cancer PC-3) [nM]	IC50 (Lung cancer H460; Lung cancer H460, culture medium High-sugar DMEM) [nM]	IC50 (Prostate cancer LNcap) [nM]
CC1(C)CC(NC(=O)C(Cc2ccc(-c3ccccc3)cc2)NC(=O)c2cc3ccccc3n2Cc2ccccc2)CC(C)(C)N1 (stereo not drawn) [PL-AC-15]	4380	1910	4310	2370	1920	–	–	–	–	–	–	–
CCC(C(=O)N[C@H](CNC1CC(C)(C)NC(C)(C)C1)Cc1ccc(-c2ccccc2)cc1)C1CCCCC1 (stereo partly drawn) [Cpd009, N-((S)-1-([1,1'-biphenyl]-4-yl)-3-((2,2,6,6-tetramethylpiperidin-4-yl)amino)propan-2-yl)-2-cyclohexylbutanamide]	1940	1470	3730	2260	1510	–	–	–	–	–	–	–
CC1(C)CC(NC[C@H](Cc2ccc(-c3ccccc3)cc2)NC(=O)C=Cc2ccccc2)CC(C)(C)N1 (stereo in doubt) [Cpd014, (S)-N-(1-([1,1'-biphenyl]-4-yl)-3-((2,2,6,6-tetramethylpiperidin-4-yl)amino)propan-2-yl)cinnamamide]	2340	1090	3310	1580	1020	32.73	0.448 ± 0.128	–	–	–	–	–
CC(=O)O[C@@]12CO[C@@H]1C[C@H](O)[C@@]1(C)C(=O)[C@H](O)C3=C(C)[C@@H](OC(=O)[C@H](O)[C@@H](NC(=O)OC(C)(C)C)c4ccccc4)C[C@@](O)([C@@H](OC(=O)c4ccccc4)[C@H]21)C3(C)C [Docetaxol, docetaxel]	–	–	–	–	–	5.29	0.631 ± 0.231	–	–	–	–	–
COc1ccc2cc(C(C)C(=O)NC(Cc3ccc(-c4ccccc4)cc3)C(=O)NC3CC(C)(C)NC(C)(C)C3)ccc2c1 (stereo not drawn) [PL-AC-202]	3050	430	1650	1650	3240	19.37	0.537 ± 0.198	–	–	–	–	–
N.N.[Cl][Pt][Cl] [Cisplati num, Cisplatinum]	–	–	–	–	–	–	–	34000	30800	68600	20400	11600
CC1(C)CC(NC[C@H](Cc2ccc(OCc3c(Cl)cccc3Cl)cc2)NC(=O)C/C=C/c2ccccc2)CC(C)(C)N1 [Cpd001, (S,E)-N-(1-(4-((2,6-dichlor obenzyl)oxy)phenyl)-3-((2,2,6,6-tetramethylpiperidin-4-yl)amino)propan-2-yl)-4-phenylbut-3-enamide]	2690	970	3030	990	3760	–	–	–	–	–	–	–
